Laboratory results: PubChem BioAssay AID2060605 (Molecular Pharmacology Branch, DTP, NCI, 2025)
Values joined by “and” are separate entries in the source; they are usually repeats but may differ in a detail not shown here. Equal values may be shown once.

Tested on: 947758-054-R-J2-PDC spheroid growth, percent test/control
Test: Anticancer human tumor 947758-054-R-J2-PDC patient-derived colon adenocarcinoma cell line growth inhibition [CLK]
Settings: spheroids with HUVEC and MSC; for viability, T/C: stronger effect = lower value
How it was run: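 Multi-cell-type spheroids combined patient-derived tumor cells with HUVEC endothelial cells and human mesenchymal stem cells. Paired agents were dosed in half-log steps down from about clinical Cmax, or from 10 microM where Cmax was unknown.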

[1] = curve of first compound, second compound 0.0316 µM
[2] = curve of first compound, second compound 0.1 µM
[3] = curve of first compound, second compound 0.316 µM
[4] = curve of first compound, second compound 1 µM
[5] = curve of first compound, second compound 3.16 µM
[6] = curve of first compound, second compound 10 µM
[7] = second compound 0.0316 µM, first compound 0.0316 µM
[8] = second compound 0.0316 µM, first compound 0.1 µM
[9] = second compound 0.0316 µM, first compound 0.316 µM
[10] = second compound 0.0316 µM, first compound 1 µM
[11] = second compound 0.1 µM, first compound 0.0316 µM
[12] = second compound 0.1 µM, first compound 0.1 µM
[13] = second compound 0.1 µM, first compound 0.316 µM
[14] = second compound 0.1 µM, first compound 1 µM
[15] = second compound 0.316 µM, first compound 0.0316 µM
[16] = second compound 0.316 µM, first compound 0.1 µM
[17] = second compound 0.316 µM, first compound 0.316 µM
[18] = second compound 0.316 µM, first compound 1 µM
[19] = second compound 1 µM, first compound 0.0316 µM
[20] = second compound 1 µM, first compound 0.1 µM
[21] = second compound 1 µM, first compound 0.316 µM
[22] = second compound 1 µM, first compound 1 µM
[23] = second compound 3.16 µM, first compound 0.0316 µM
[24] = second compound 3.16 µM, first compound 0.1 µM
[25] = second compound 3.16 µM, first compound 0.316 µM
[26] = second compound 3.16 µM, first compound 1 µM
[27] = second compound 10 µM, first compound 0.0316 µM
[28] = second compound 10 µM, first compound 0.1 µM
[29] = second compound 10 µM, first compound 0.316 µM
[30] = second compound 10 µM, first compound 1 µM
[31] = second compound 0.0316 µM, first compound 3.16 µM
[32] = second compound 0.0316 µM, first compound 10 µM
[33] = second compound 0.1 µM, first compound 3.16 µM
[34] = second compound 0.1 µM, first compound 10 µM
[35] = second compound 0.316 µM, first compound 3.16 µM
[36] = second compound 0.316 µM, first compound 10 µM
[37] = second compound 1 µM, first compound 3.16 µM
[38] = second compound 1 µM, first compound 10 µM
[39] = second compound 3.16 µM, first compound 3.16 µM
[40] = second compound 3.16 µM, first compound 10 µM
[41] = second compound 10 µM, first compound 3.16 µM
[42] = second compound 10 µM, first compound 10 µM
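Note: spheroids exposed to compounds for one week before readout.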
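Throughout, for viability, T/C: 100% = DMSO vehicle control wells.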

**Q.** Which IC50 [1] does the source give for COc1c(OCCCN2CCOCC2)ccc2c3n(c(=NC(=O)c4cnc(N)nc4)nc12)CCN3 + CN1CCN(c2cc(C(=O)Nc3cc4cc(-c5cnn(C)c5)ccc4cn3)ccn2)CC1 here?
**A.** 184 nM

**Q.** And the IC50 [2]?
**A.** 29 nM

**Q.** And the IC50 [3]?
**A.** < 3.16 nM

**Q.** What about the IC50 [4] of the same compound?
**A.** < 3.16 nM

**Q.** What about the IC50 [5] of the same compound?
**A.** < 3.16 nM

**Q.** What about the IC50 [6] of the same compound?
**A.** < 3.16 nM

**Q.** What about the viability, T/C (second compound 0.0316 µM, first compound 0.00316 µM) of the same compound?
**A.** 157%

**Q.** What about the viability, T/C (second compound 0.0316 µM, first compound 0.01 µM) of the same compound?
**A.** 133%

**Q.** And the viability, T/C [7]?
**A.** 90.8%

**Q.** What about the viability, T/C [8] of the same compound?
**A.** 75.6%

**Q.** What about the viability, T/C [9] of the same compound?
**A.** 28.7%

**Q.** What about the viability, T/C [10] of the same compound?
**A.** 18.1%

**Q.** And the viability, T/C (second compound 0.1 µM, first compound 0.00316 µM)?
**A.** 188%

**Q.** What about the viability, T/C (second compound 0.1 µM, first compound 0.01 µM) of the same compound?
**A.** 147%

**Q.** And the viability, T/C [11]?
**A.** 40.3%

**Q.** And the viability, T/C [12]?
**A.** 33.4%

**Q.** And the viability, T/C [13]?
**A.** 17.9%

**Q.** What about the viability, T/C [14] of the same compound?
**A.** 10%

**Q.** What about the viability, T/C (second compound 0.316 µM, first compound 0.00316 µM) of the same compound?
**A.** 7.04%

**Q.** And the viability, T/C (second compound 0.316 µM, first compound 0.01 µM)?
**A.** 6.09%

**Q.** What about the viability, T/C [15] of the same compound?
**A.** 3.95%

**Q.** And the viability, T/C [16]?
**A.** 2.44%

**Q.** What about the viability, T/C [17] of the same compound?
**A.** 0.75%

**Q.** What about the viability, T/C [18] of the same compound?
**A.** 1%

**Q.** And the viability, T/C (second compound 1 µM, first compound 0.00316 µM)?
**A.** 0.16%

**Q.** What about the viability, T/C (second compound 1 µM, first compound 0.01 µM) of the same compound?
**A.** 0.18%

**Q.** And the viability, T/C [19]?
**A.** 0.15%

**Q.** What about the viability, T/C [20] of the same compound?
**A.** 0.1%

**Q.** What about the viability, T/C [21] of the same compound?
**A.** 1.96%

**Q.** And the viability, T/C [22]?
**A.** 1.55%

**Q.** What about the viability, T/C (second compound 3.16 µM, first compound 0.00316 µM) of the same compound?
**A.** 0.48%

**Q.** And the viability, T/C (second compound 3.16 µM, first compound 0.01 µM)?
**A.** 0.95%

**Q.** What about the viability, T/C [23] of the same compound?
**A.** 0.19%

**Q.** And the viability, T/C [24]?
**A.** 0.15%

**Q.** What about the viability, T/C [25] of the same compound?
**A.** 1.63%

**Q.** What about the viability, T/C [26] of the same compound?
**A.** 2.02%

**Q.** And the viability, T/C (second compound 10 µM, first compound 0.00316 µM)?
**A.** 0.31%

**Q.** What about the viability, T/C (second compound 10 µM, first compound 0.01 µM) of the same compound?
**A.** 3.4%

**Q.** And the viability, T/C [27]?
**A.** 0.32%

**Q.** What about the viability, T/C [28] of the same compound?
**A.** 0.27%

**Q.** And the viability, T/C [29]?
**A.** 1.44%

**Q.** And the viability, T/C [30]?
**A.** 1.28%

**Q.** What does the source list for O=C(c1cc(Cc2n[nH]c(=O)c3ccccc23)ccc1F)N1CCN(C(=O)C2CC2)CC1 + CN1CCN(c2cc(C(=O)Nc3cc4cc(-c5cnn(C)c5)ccc4cn3)ccn2)CC1?
**A.** IC50 [1]: > 10000 nM; IC50 [2]: > 10000 nM; IC50 [3]: < 31.6 nM; IC50 [4]: < 31.6 nM; IC50 [5]: < 31.6 nM; IC50 [6]: < 31.6 nM; viability, T/C [7]: 137%; viability, T/C [8]: 108%; viability, T/C [9]: 127%; viability, T/C [10]: 111%; viability, T/C [31]: 139%; viability, T/C [32]: 222%; viability, T/C [11]: 173%; viability, T/C [12]: 187%; viability, T/C [13]: 179%; viability, T/C [14]: 180%; viability, T/C [33]: 206%; viability, T/C [34]: 119%; viability, T/C [15]: 3.05%; viability, T/C [16]: 3.52%; viability, T/C [17]: 3.12%; viability, T/C [18]: 2.9%; viability, T/C [35]: 2.97%; viability, T/C [36]: 2.81%; viability, T/C [19]: 0.13%; viability, T/C [20]: 0.13%; viability, T/C [21]: 0.15%; viability, T/C [22]: 0.09%; viability, T/C [37]: 0.15%; viability, T/C [38]: 0.18%; viability, T/C [23]: 0.14%; viability, T/C [24]: 0.24%; viability, T/C [25]: 0.22%; viability, T/C [26]: 0.18%; viability, T/C [39]: 0.73%; viability, T/C [40]: 0.27%; viability, T/C [27]: 0.31%; viability, T/C [28]: 0.36%; viability, T/C [29]: 0.95%; viability, T/C [30]: 0.29%; viability, T/C [41]: 0.44%; viability, T/C [42]: 0.35%

**Q.** With C#Cc1c(F)ccc2cc(O)cc(-c3ncc4c(N5CC6CCC(C5)N6)nc(OCC56CCCN5CC(F)C6)nc4c3F)c12 (stereo not drawn) as the compound, how does the viability, T/C (compound 0.0316 µM) read?
**A.** 97% and 82.7%

**Q.** What about the viability, T/C (compound 0.1 µM) of the same compound?
**A.** 90.4% and 83.7%

**Q.** And the viability, T/C (compound 0.316 µM)?
**A.** 100% and 88%

**Q.** And the viability, T/C (compound 1 µM)?
**A.** 80% and 85.2%

**Q.** What about the viability, T/C (compound 3.16 µM) of the same compound?
**A.** 87.3% and 82.6%

**Q.** And the viability, T/C (compound 10 µM)?
**A.** 87.5% and 88%

**Q.** And the IC50 (curve of compound)?
**A.** > 10000 nM

**Q.** Which results are given for CC(Nc1ccc2c(c1)OCCn1cc(N3C(=O)OCC3C(F)F)nc1-2)C(N)=O (stereo not drawn) + CN1CCN(c2cc(C(=O)Nc3cc4cc(-c5cnn(C)c5)ccc4cn3)ccn2)CC1?
**A.** IC50 [1]: > 10000 nM; IC50 [2]: 297 nM; IC50 [3]: < 31.6 nM; IC50 [4]: < 31.6 nM; IC50 [5]: < 31.6 nM; IC50 [6]: < 31.6 nM; viability, T/C [7]: 138%; viability, T/C [8]: 153%; viability, T/C [9]: 137%; viability, T/C [10]: 88.2%; viability, T/C [31]: 94.5%; viability, T/C [32]: 74.2%; viability, T/C [11]: 165%; viability, T/C [12]: 127%; viability, T/C [13]: 45.4%; viability, T/C [14]: 39.6%; viability, T/C [33]: 44.5%; viability, T/C [34]: 29.6%; viability, T/C [15]: 5.46%; viability, T/C [16]: 4.48%; viability, T/C [17]: 4.7%; viability, T/C [18]: 3.14%; viability, T/C [35]: 3.86%; viability, T/C [36]: 1.64%; viability, T/C [19]: 0.13%; viability, T/C [20]: 0.18%; viability, T/C [21]: 0.13%; viability, T/C [22]: 0.11%; viability, T/C [37]: 0.11%; viability, T/C [38]: 0.2%; viability, T/C [23]: 0.24%; viability, T/C [24]: 0.19%; viability, T/C [25]: 0.25%; viability, T/C [26]: 0.22%; viability, T/C [39]: 0.31%; viability, T/C [40]: 0.26%; viability, T/C [27]: 0.35%; viability, T/C [28]: 0.5%; viability, T/C [29]: 0.84%; viability, T/C [30]: 0.31%; viability, T/C [41]: 1.57%; viability, T/C [42]: 0.63%
